Experimental data as given in US7700644B2, “Isoflavonoid dimers” (Novogen Research Pty Ltd, priority 2005, dated 2010).

Assays:
MM96L (Melanoma) = test: In vitro cytotoxicity, MTT proliferation assay, MM96L; type: cell-based, human
Description: (§1) The human pancreatic cancer cell line, HPAC (CRL-2119) was routinely cultured in 1:1 mixture DMEM (Sigma) plus Ham's F12 (Sigma) medium containing HEPES (15 mM), insulin (0.002 mg/ml), transferrin (0.005 mg/ml), hydrocortisone, (40 ng/ml), epidermal growth factor (10 ng/ml). The ovarian cancer cell line CP70 was obtained as a gift from Dr. Gil Mor (Yale University) and cultured in a 1:1 mixture DMEM plus Ham's F12 medium, and SKOV-3 was purchased from ATCC and cultured in McCoy's 5a medium. The breast cancer cell line MDA-MB-468 cultured in Leibovitz's L-15 medium.
(§2) All cultures were supplemented with 10% FCS(CSL, Australia), penicillin (100 U/ml), streptomycin ([…]), L-glutamine (2 mM) and sodium bicarbonate (1.2 g/L), and cultured at 37° C. in a humidified atmosphere of 5% CO2. All remaining cell lines were purchased from ATCC (Maryland, USA) except where noted.
(§3) IC50 values were determined for each cell line. Cells were seeded in 96-well plates at an appropriate cell density as determined from growth kinetics analysis. NFFs were cultured for 5 days and RK-13s for 24 hrs in the absence and presence of the test compounds. Cell proliferation was assessed after the addition of 20 μl of 3-4,5 dimethylthiazol-2,5-diphenyl tetrazolium bromide (MTT, 2.5 mg/ml in PBS, Sigma) for 3-4 hrs at 37° C. according to manufacturer's instructions. IC50 values were calculated from semi-log plots of % of control proliferation on the y-axis against log dose on the x-axis.

MCF-7 (Breast) = test: In vitro cytotoxicity, MTT proliferation assay, MCF-7; type: cell-based, human; conditions: Breast MCF-7
Description: as §1, §2, §3

A2780 (Ovarian) = test: In vitro cytotoxicity, MTT proliferation assay, A2780; type: cell-based, human
Description: as §1, §2, §3

[1] = test system: Neonatal foreskin fibroblasts (NFF); test: Normal cell toxicity, MTT proliferation assay, NFF; type: cell-based, human; conditions: NFF fibroblast, cultured 5 days, MTT
Description: Neonatal foreskin fibroblasts (NFF) were a gift from Dr. Peter Parsons (Queensland Institute of Medical Research). RK-13 (rabbit kidney) cells were obtained from Miller Whalley (Macquarie University). Both cell types were cultured in RPMI supplemented with 10% FCS (CSL, Australia), penicillin (100 U/ml), streptomycin ([…]), L-glutamine (2 mM) and sodium bicarbonate (1.2 g/L), and cultured at 37° C. in a humidified atmosphere of 5% CO2.
as §3
Duplicate cytotoxicity assays against NFF cells were conducted with dehydroequol (DHE), 4,9-dihydroxy-14,15-dimethoxy-12a-(3′,4′-dimethoxyphenyl)-3,10-dimethyl-2,11-dioxa-(1H,12H)-6b,6c,12a,16b-tetrahydronaphtho[1,2-g]chrysene (2) from Example 6.1 and cisplatin.

PC3 (Prostate) = test: In vitro cytotoxicity, MTT proliferation assay, PC3; type: cell-based, human
Description: as §1, §2, §3

[2] = test system: human pancreatic cancer cell line, HPAC (CRL-2119); test: In vitro cytotoxicity, MTT proliferation assay, CRL-2119; type: cell-based; conditions: Pancreatic CRL-2119
Description: as §1, §2, §3

DU145 (Prostate) = test: In vitro cytotoxicity, MTT proliferation assay, DU145; type: cell-based, human
Description: as §1, §2, §3

HCT-15 (Colorectal) = test: In vitro cytotoxicity, MTT proliferation assay, HCT-15; type: cell-based, human; conditions: Colorectal HCT-15
Description: as §1, §2, §3

[3] = test system: breast cancer cell line MDA-MB-468; test: In vitro cytotoxicity, MTT proliferation assay, MDA-MB-468; type: cell-based, human; conditions: Breast MDA-MB-468
Description: as §1, §2, §3

SKOV-3 (Ovarian) = test: In vitro cytotoxicity, MTT proliferation assay, SKOV-3; type: cell-based, human; conditions: Ovarian SKOV-3
Description: as §1, §2, §3

LNCaP (Prostate) = test: In vitro cytotoxicity, MTT proliferation assay, LNCaP; type: cell-based, human
Description: as §1, §2, §3

[4] = test system: ovarian cancer cell line CP70; test: In vitro cytotoxicity, MTT proliferation assay, CP70; type: cell-based, human
Description: as §1, §2, §3

NCI-H460 (Lung) = test: In vitro cytotoxicity, MTT proliferation assay, NCI-H460; type: cell-based, human
Description: as §1, §2, §3

HT-29 (Colorectal) = test: In vitro cytotoxicity, MTT proliferation assay, HT-29; type: cell-based, human; conditions: Colorectal HT-29
Description: as §1, §2, §3

MM200 (Melanoma) = test: In vitro cytotoxicity, MTT proliferation assay, MM200; type: cell-based, human
Description: as §1, §2, §3

HTB-138 (Glioma) = test: In vitro cytotoxicity, MTT proliferation assay, HTB-138; type: cell-based, human; conditions: Glioma HTB-138
Description: as §1, §2, §3

splenocytes = test: Murine splenocyte proliferation with mitogens (MTT), 3 day incubation with compound; type: cell-based, Male Skh-1 (hairless) mice
Description: Male Skh-1 (hairless) mice, six weeks old were killed by cervical dislocation. Single cell suspensions were made from their spleens and erythrocytes were lysed in buffer (0.14M NH4Cl, 17 mM Tris, pH 7.2). The remaining splenocytes were cultured in RPMI-1640 (Gibco) supplemented with 10% (v:v) FBS, 200 mM L-glutamine, penicillin/streptomycin and […] 2-mercaptoethanol. […] Samples were analysed after a 3 day incubation at 37° C. in 5% CO2 in air. To assess cell numbers, methylthiazoletetrazolium (MTT) was added to each well, incubated for a further 4 hrs and then colour developed with 0.04N HCl in isopropanol (Mosmann 1983). Plates were read at 570 nm and 630 nm. The compounds were examined several times using different mice. For each assay, the effect of test compound was compared with that of vehicle control, and the results compared using a student's t test (Prism). Statistically significant difference was determined to have occurred when p<0.05.

PGE2 synthesis = PGE2 synthesis in human monocytes incubated with LPS; type: cell-based; conditions: LPS 200 ng/mL, 18 hrs, dose responsive
Description: (§4) Human peripheral blood monocytes (from three separate individuals) were isolated from buffy coats by lymphoprep gradient separation of mononuclear cells followed by counter-current centrifugal elutriation (Demasi et al. 2000). The test compounds were dissolved in DMSO and added to fresh monocytes After 30 min, LPS was added to achieve a final concentration of 200 ng/mL. After incubation for 18 hrs at 37° C. in 5% CO2, supernatants were removed and PGE2, TXB2 (the stable hydrolysis product of TXA2) and TNFα production were measured by radioimmunoassay (RIA).

PGE2 = PGE2 in murine macrophages (RAW 264.7) stimulated with LPS; type: cell-based, mouse; conditions: RAW 264.7, LPS 50 ng/ml, 16 hrs, dose responsive
Description: (§5) The mouse macrophage cell line RAW 264.7 was cultured in DMEM supplemented with FCS, 2 mM glutamine and 50 U/ml penicillin/streptomycin. Subconfluent cells were detached from the flask by gentle scraping and 24-well plates seeded at 5×10^5 cells per well and allowed to adhere for 1 hr. Cells were then treated either test compounds (in 0.025% DMSO) or vehicle alone, and incubated for 1 hr. LPS 50 ng/ml (LPS —Sigma-Aldrich) was then added. After incubation for 16 hrs, culture media was collected and stored at −80° C. for ecosanoid and cytokine measurements using enzyme immunometric assays (PGE2 and TXB2—Cayman Chemical and TNFα—Becton Dickinson).

TNFα synthesis = TNFα synthesis in human monocytes incubated with LPS; type: cell-based; conditions: LPS 200 ng/mL, 18 hrs
Description: as §4

TXB2 = TXB2 in murine macrophages (RAW 264.7) stimulated with LPS; type: cell-based, mouse; conditions: RAW 264.7, LPS 50 ng/ml, 16 hrs, dose responsive
Description: as §5

unstimulated splenocytes = test: Murine splenocytes, 24 hour pre-incubation with compound then mitogenic stimulation; type: cell-based, Male Skh-1 (hairless) mice; conditions: 10 μM
Description: Male Skh-1 (hairless) mice, six weeks old were killed by cervical dislocation. Single cell suspensions were made from their spleens and erythrocytes were lysed in buffer (0.14M NH4Cl, 17 mM Tris, pH 7.2). The remaining splenocytes were cultured in RPMI-1640 (Gibco) supplemented with 10% (v:v) FBS, 200 mM L-glutamine, penicillin/streptomycin and […] 2-mercaptoethanol. Splenocytes were added to triplicate wells containing either concanavalin A (ConA, Sigma-Aldrich—0.4 μg/well), lipopolysaccharide (LPS, Sigma-Aldrich—1 μg/well) or no mitogen, as well as 10 μM of either Compound 1 or Compound 2 in DMSO, or DMSO alone. Samples were analysed after a 3 day incubation at 37° C. in 5% CO2 in air. To assess cell numbers, methylthiazoletetrazolium (MTT) was added to each well, incubated for a further 4 hrs and then colour developed with 0.04N HCl in isopropanol (Mosmann 1983). Plates were read at 570 nm and 630 nm. The compounds were examined several times using different mice. For each assay, the effect of test compound was compared with that of vehicle control, and the results compared using a student's t test (Prism). Statistically significant difference was determined to have occurred when p<0.05.
Another assay examined the effect pre-incubating unstimulated splenocytes with test compounds at 10 μM for 24 hours, removing the compounds and then assessing their ability to respond to mitogenic stimulation as described for the previous assay. Cell numbers were assessed after the 24 hr pre-incubation using MTT, and equal numbers of cells/well plated into 96 well plates as usual.

[5] = test system: UV irradiation-induced skin oedema; test: Murine model of UV irradiation-induced skin oedema; type: in vivo, female Skh:hr-1 albino mice; conditions: for Change in skin thickness (mean ± SD, ×0.01 mm): dorsal skin fold, topical 0.2 ml of 20 μM at 30 min, 2 h, 4 h
From the text: Groups of 4-5 female Skh:hr-1 albino mice were irradiated with 1×3 MEdD (minimal edematous dose) of solar simulated UV radiation (SSUV). Solar-simulated ultraviolet radiation (SSUV) was provided by a planar bank of 6 UVA tube (Hitachi 40W F40T 10/BL, black light) and one UVB tube (Philips TL 40W/12RS) with radiation filtered through a sheet of 0.125 mm cellulose acetate (Eastman Chemical Products, Kingport, Tenn., USA) to give 2.96×10-4W/cm2 UVA and 1.59×10-5W/cm2 UVB. The distance of the UV lamp from the irradiance table surface was approximately 20 cm and temperature was controlled with an electric fan. During irradiation, the cages were rotated below the lights to reduce the variation in radiation intensity in different positions.
Either test compound (0.2 ml of a 20 μM solution) or vehicle (propylene glycol/ethanol/water 1:2:1) was applied to the irradiated dorsal skin at 30 min, 2 h and 4 h post-irradiation. Dorsal skin fold measurements were made with a spring micrometer prior to and at 24 hr and 48 h post-UV exposure. The difference in skin thickness pre- and post-exposure to UVR was calculated for each mouse, and the differences examined between test compound and vehicle control were analysed using an unpaired two-tailed t test.

TXB2 synthesis = TXB2 synthesis in human monocytes incubated with LPS; type: cell-based; conditions: LPS 200 ng/mL, 18 hrs, dose responsive
Description: as §4

## N.N.[Cl][Pt][Cl] [Cisplatin, cis-diamminedichloroplatinum]
MM96L (Melanoma)
  IC50: 4.6 µM
MCF-7 (Breast)
  IC50: 3.69 µM
A2780 (Ovarian)
  IC50: 2.1 µM
[1]
  IC50: 9.85 ± 5 µM
PC3 (Prostate)
  IC50: 2.11 µM
[2]
  IC50: 9.36 µM
DU145 (Prostate)
  IC50: 2.07 µM
HCT-15 (Colorectal)
  IC50: 130 ± 39 µM
[3]
  IC50: 0.58 µM
SKOV-3 (Ovarian)
  IC50: 5.4 µM
LNCaP (Prostate)
  IC50: > 10 µM
[4]
  IC50: 10.3 µM
NCI-H460 (Lung)
  IC50: 22.3 µM
HT-29 (Colorectal)
  IC50: 22.7 ± 35 µM
MM200 (Melanoma)
  IC50: 8.82 µM
HTB-138 (Glioma)
  IC50: 42.3 µM

## COc1ccc(C23COc4cc(O)ccc4C2C2c4ccc(O)cc4OCC2c2cc(OC)c(OC)cc23)cc1OC (stereo not shown) [Cpd. 1, 4,9-Dihydroxy-14,15-dimethoxy-12a-(3′,4′-dimethoxyphenyl)-2,11-dioxa-(1H,12H)-6b,6c,12a,16b-tetrahydronaphtho[1,2-g]chrysene]
splenocytes; 10 μM, LPS, 3 day incubation
  effect on B cell proliferation: no effect
splenocytes; 10 μM, no mitogen, significant in 5/6 assays
  enhancement of proliferation of unstimulated splenocytes: 25-33%
splenocytes; Mus musculus, Splenocyte, 72 h, 10 μM, ConA, 3 day incubation, significant in 4/6 assays, read-out: inhibition of T cell proliferation
  inhibition at 10 µM: 14 to 19%
splenocytes; higher concentrations (than 10 μM), regardless of mitogenic stimulation
  proliferation compared with vehicle control: reduced proliferation
PGE2 synthesis
  effect on PGE2 synthesis: induced
PGE2
  effect on PGE2: induced
TNFα synthesis
  effect on induction of TNFα: inhibited
TXB2
  effect on TXB2: inhibited
Unstimulated splenocytes
  Splenocyte viability following three days' culture in the absence of mitogen: not affected
  reduction in cell numbers compared with vehicle alone: 73%
Unstimulated splenocytes; compound removed
  proliferative response to ConA after pre-incubation: no effect
[5]; 24 hrs post-irradiation
  inhibition of skin oedema: significantly inhibited
[5]; 24 hrs post-irradiation, vehicle 78 ± 23
  Change in skin thickness (mean ± SD, ×0.01 mm): 51 ± 14 ×0.01 mm
[5]; 48 hrs post-irradiation, vehicle 147 ± 37
  Change in skin thickness (mean ± SD, ×0.01 mm): 117 ± 20 ×0.01 mm
TXB2 synthesis
  effect on TXB2 synthesis: inhibited
